Experimental data published in PMC4409056, “A Maltose-Binding Protein Fusion Construct Yields a Robust Crystallography Platform for MCL1” (PLoS ONE, 2015).

Tests used:
MCL1 173–329 = molecular target: T1, MCL1 173–329 (Homo sapiens, UniProt Q07820); assay: isothermal titration calorimetry; assay type: binding
T1 construct: residues 173-329 (no N-terminal region, no transmembrane domain), E. coli, 6xHis-Smt3 tag cleaved by Ulp-1, wild type

MBP-MCL1 = molecular target: T2, MBP-MCL1 (Homo sapiens, UniProt Q07820, K194A/K197A/R201A); assay: isothermal titration calorimetry; crystal structure […] Å (soak); assay type: binding
T2 construct: 6xHis-TEV tag cleaved, MBP kept; E. coli

MCL1 173–329 (human) = assay: ITC; hNoxa (20–38) (400 μM or 300 μM) titrated into 25 μM MCL1 173–329 or MBP-MCL1; autoITC200, 25°C, 25 mM Hepes pH 7.4, 100 mM NaCl, 0.1 mM TCEP, 4% DMSO; n ≥ 3, averaged KD
[1] = molecular target: T3, MBP-MCL1 (MBP, two-residue GS linker, MCL1 173–321 K194A/K197A/R201A) (human, UniProt Q07820 173-321, K194A | K197A | R201A); assay: as above; conditions: both partners purified
T3 construct: two-residue linker between MBP and MCL1; MCL1, human, residues 173-321 with three alanine mutations in the disordered loop; only the 6XHis-Tev part was removed with TEV protease; Six of the seven deposited PDB entries hold this construct and one holds MCL1 173–321 without MBP; also called MBP-MCL1 fusion construct; MBP-MCL1 fusion protein; source: E. coli (Top 10 or BL21 (DE3)), purified (Ni2+ …)
T3 sequence (Q07820 other isoform, or with tags, fused parts or gaps with the stated changes): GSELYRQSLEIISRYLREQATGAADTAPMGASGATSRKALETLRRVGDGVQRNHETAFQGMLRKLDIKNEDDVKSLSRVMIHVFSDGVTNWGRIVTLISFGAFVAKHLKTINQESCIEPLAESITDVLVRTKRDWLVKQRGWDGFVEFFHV

T2 sequence (Q07820 173-321 K194A/K197A/R201A): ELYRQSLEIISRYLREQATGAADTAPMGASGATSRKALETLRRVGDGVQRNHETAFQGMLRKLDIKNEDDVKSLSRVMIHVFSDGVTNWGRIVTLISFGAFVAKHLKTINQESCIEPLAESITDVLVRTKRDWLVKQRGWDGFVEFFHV
T1 sequence (Q07820 173-329): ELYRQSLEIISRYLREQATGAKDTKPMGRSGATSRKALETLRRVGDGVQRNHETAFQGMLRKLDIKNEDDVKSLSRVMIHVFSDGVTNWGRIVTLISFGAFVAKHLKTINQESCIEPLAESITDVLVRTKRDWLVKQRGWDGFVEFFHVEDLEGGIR
Sequence of MCL1 173–329 (human) (Q07820 173-329): as above

## O=C(O)c1sc2cc(F)ccc2c1Cl [compound 4, fragment 4]
MCL1 173–329
  Kd: 97 µM
MBP-MCL1
  Kd: 93 µM

B1: hNoxa (20–38) (peptide, UniProt Q13794 20-38, looked up)
peptide: ELEVECATQLRRFGDKLNF
notes: Noxa, human, BH3 peptide, residues 20-38; also called BH3 peptide Noxa (20–38)
MCL1 173–329 (human)
  Kd: 0.16 µM
[1]
  Kd: 0.19 µM
